# ChEMBL document CHEMBL1201862, “PubChem BioAssay data set” (2004)
#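 Method: 48-hour compound exposure of cells in 96-well plates, five concentrations, linear interpolation of endpoints. GI50: concentration for 50% inhibition of growth.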 The source made the active and inactive calls. Rule as the data show it: active = GI50 up to about 1.1 µM and inactive = higher.
# Tests used:
# Experiment in all cases: DTP human tumour cell line panel, 48 h
# [1] = test system: 786-0
# [2] = test system: A498
# [3] = test system: A549
# [4] = test system: ACHN
# [5] = test system: BT-549
# [6] = test system: CAKI-1
# [7] = test system: CCRF-CEM
# [8] = test system: COLO 205
# [9] = test system: DU-145
# [10] = test system: EKVX
# [11] = test system: HCC 2998
# [12] = test system: HCT-116
# [13] = test system: HCT-15
# [14] = test system: HL-60
# [15] = test system: HOP-62
# [16] = test system: HOP-92
# [17] = test system: HT-29
# [18] = test system: Hs-578T
# [19] = test system: IGROV-1
# [20] = test system: K562
# [21] = test system: KM12
# [22] = test system: LOX IMVI
# [23] = test system: M14
# [24] = test system: MCF7
# [25] = test system: MDA-MB-231
# [26] = test system: MDA-MB-435
# [27] = test system: MDA-N
# [28] = test system: MOLT-4
# [29] = test system: Malme-3M
# [30] = test system: NCI-H226
# [31] = test system: NCI-H23
# [32] = test system: NCI-H460
# [33] = test system: NCI-H522
# [34] = test system: NCI/ADR-RES
# [35] = test system: OVCAR-3
# [36] = test system: OVCAR-4
# [37] = test system: OVCAR-5
# [38] = test system: OVCAR-8
# [39] = test system: PC-3
# [40] = test system: RPMI-8226
# [41] = test system: RXF 393
# [42] = test system: SF-268
# [43] = test system: SF-295
# [44] = test system: SF-539
# [45] = test system: SK-MEL-28
# [46] = test system: SK-MEL-2
# [47] = test system: SK-MEL-5
# [48] = test system: SK-OV-3
# [49] = test system: SN12C
# [50] = test system: SNB-19
# [51] = test system: SNB-75
# [52] = test system: SR
# [53] = test system: SW-620
# [54] = test system: T47D
# [55] = test system: TK-10
# [56] = test system: U-251
# [57] = test system: UACC-257
# [58] = test system: UACC-62
# [59] = test system: UO-31
smiles,measurement,setting,value
CC(C)NC(=O)OCc1c(COC(=O)NC(C)C)c(-c2cc[n+](COC(=O)C(C)C)cc2)n2c1CCC2,GI50,[1],28 µM (inactive)
same,GI50,[2],13.9 µM (inactive)
same,GI50,[3],> 100 µM (inactive)
same,GI50,[4],12.2 µM (inactive)
same,GI50,[5],> 100 µM (inactive)
same,GI50,[6],20 µM (inactive)
same,GI50,[7],39.9 µM (inactive)
same,GI50,[8],> 100 µM (inactive)
same,GI50,[9],> 100 µM (inactive)
same,GI50,[10],> 100 µM (inactive)
same,GI50,[11],> 100 µM (inactive)
same,GI50,[12],> 100 µM (inactive)
same,GI50,[13],> 100 µM
same,GI50,[14],27.8 µM (inactive)
same,GI50,[15],> 68.4 µM (inactive)
same,GI50,[16],69.7 µM (inactive)
same,GI50,[17],> 100 µM (inactive)
same,GI50,[18],> 100 µM (inactive)
same,GI50,[19],30.1 µM (inactive)
same,GI50,[20],> 100 µM (inactive)
same,GI50,[21],> 100 µM (inactive)
same,GI50,[22],> 50.7 µM (inactive)
same,GI50,[23],99.5 µM (inactive)
same,GI50,[24],64.4 µM (inactive)
same,GI50,[25],> 100 µM (inactive)
same,GI50,[26],> 100 µM (inactive)
same,GI50,[27],> 100 µM (inactive)
same,GI50,[28],> 46.9 µM (inactive)
same,GI50,[29],> 100 µM (inactive)
same,GI50,[30],> 100 µM (inactive)
same,GI50,[31],> 90.4 µM (inactive)
same,GI50,[32],41.6 µM (inactive)
same,GI50,[33],> 72.1 µM (inactive)
same,GI50,[34],> 100 µM (inactive)
same,GI50,[35],> 100 µM (inactive)
same,GI50,[36],> 100 µM (inactive)
same,GI50,[37],> 100 µM (inactive)
same,GI50,[38],> 100 µM (inactive)
same,GI50,[39],> 59.6 µM (inactive)
same,GI50,[40],> 100 µM (inactive)
same,GI50,[41],21 µM (inactive)
same,GI50,[42],> 74.8 µM (inactive)
same,GI50,[43],> 83.2 µM (inactive)
same,GI50,[44],17.7 µM (inactive)
same,GI50,[45],> 100 µM (inactive)
same,GI50,[46],> 100 µM (inactive)
same,GI50,[47],> 100 µM (inactive)
same,GI50,[48],98.4 µM (inactive)
same,GI50,[49],62.1 µM (inactive)
same,GI50,[50],> 100 µM (inactive)
same,GI50,[51],> 53.5 µM (inactive)
same,GI50,[52],> 25.2 µM (inactive)
same,GI50,[53],> 100 µM (inactive)
same,GI50,[54],> 94.8 µM (inactive)
same,GI50,[55],41.5 µM (inactive)
same,GI50,[56],> 100 µM (inactive)
same,GI50,[57],> 100 µM (inactive)
same,GI50,[58],48.9 µM (inactive)
same,GI50,[59],> 100 µM (inactive)
NC(=S)NN=Cc1ccccc1OCc1cccc(COc2ccccc2C=NNC(N)=S)n1,GI50,[1],12.4 µM (inactive)
same,GI50,[2],17.5 µM (inactive)
same,GI50,[3],> 100 µM (inactive)
same,GI50,[4],20.6 µM (inactive)
same,GI50,[5],13.6 µM (inactive)
same,GI50,[6],> 100 µM (inactive)
same,GI50,[7],> 100 µM (inactive)
same,GI50,[8],> 87.7 µM (inactive)
same,GI50,[9],13.7 µM (inactive)
same,GI50,[10],10 µM (inactive)
same,GI50,[11],> 100 µM (inactive)
same,GI50,[12],32.7 µM (inactive)
same,GI50,[13],> 61.2 µM
same,GI50,[14],> 100 µM (inactive)
same,GI50,[15],6.56 µM (inactive)
same,GI50,[16],3.72 µM (inactive)
same,GI50,[17],> 100 µM (inactive)
same,GI50,[18],18.1 µM (inactive)
same,GI50,[19],13.7 µM (inactive)
same,GI50,[20],> 100 µM (inactive)
same,GI50,[21],> 100 µM (inactive)
same,GI50,[22],> 100 µM (inactive)
same,GI50,[23],> 100 µM (inactive)
same,GI50,[24],> 100 µM (inactive)
same,GI50,[25],6.92 µM (inactive)
same,GI50,[26],> 100 µM (inactive)
same,GI50,[27],> 100 µM (inactive)
same,GI50,[28],> 100 µM (inactive)
same,GI50,[29],> 54.3 µM (inactive)
same,GI50,[30],> 34.4 µM (inactive)
same,GI50,[31],29.8 µM (inactive)
same,GI50,[32],> 58.6 µM (inactive)
same,GI50,[33],> 64.9 µM (inactive)
same,GI50,[34],40.6 µM (inactive)
same,GI50,[35],42.1 µM (inactive)
same,GI50,[36],> 100 µM (inactive)
same,GI50,[37],29.9 µM (inactive)
same,GI50,[38],6.01 µM (inactive)
same,GI50,[39],> 57.7 µM (inactive)
same,GI50,[40],> 100 µM (inactive)
same,GI50,[41],2.4 µM (inactive)
same,GI50,[42],5.46 µM (inactive)
same,GI50,[43],6.85 µM (inactive)
same,GI50,[44],7.93 µM (inactive)
same,GI50,[45],> 100 µM (inactive)
same,GI50,[46],6.89 µM (inactive)
same,GI50,[47],> 100 µM (inactive)
same,GI50,[48],9.89 µM (inactive)
same,GI50,[49],> 79.3 µM (inactive)
same,GI50,[50],9.89 µM (inactive)
same,GI50,[51],1.78 µM (inactive)
same,GI50,[52],> 100 µM (inactive)
same,GI50,[53],> 96.4 µM (inactive)
same,GI50,[54],> 38.2 µM (inactive)
same,GI50,[55],14.4 µM (inactive)
same,GI50,[56],4.55 µM (inactive)
same,GI50,[57],> 79.8 µM (inactive)
same,GI50,[58],19.3 µM (inactive)
same,GI50,[59],28.2 µM (inactive)
O=P1(c2ccccc2)C(c2ccccc2)=CC=C1c1ccccc1,GI50,[1],26 µM (inactive)
same,GI50,[2],16.8 µM (inactive)
same,GI50,[3],22.6 µM (inactive)
same,GI50,[4],28 µM (inactive)
same,GI50,[5],18.8 µM (inactive)
same,GI50,[6],50.7 µM (inactive)
same,GI50,[7],12.3 µM (inactive)
same,GI50,[8],15 µM (inactive)
same,GI50,[9],41.8 µM (inactive)
same,GI50,[10],24.2 µM (inactive)
same,GI50,[11],25.2 µM (inactive)
same,GI50,[12],9.25 µM (inactive)
same,GI50,[13],16 µM
same,GI50,[14],2.28 µM (inactive)
same,GI50,[15],44.4 µM (inactive)
same,GI50,[16],12.1 µM (inactive)
same,GI50,[17],10.3 µM (inactive)
same,GI50,[18],37.8 µM (inactive)
same,GI50,[19],39.8 µM (inactive)
same,GI50,[20],3.95 µM (inactive)
same,GI50,[21],16.7 µM (inactive)
same,GI50,[22],10.4 µM (inactive)
same,GI50,[23],18.4 µM (inactive)
same,GI50,[24],10.4 µM (inactive)
same,GI50,[25],36.7 µM (inactive)
same,GI50,[26],12.4 µM (inactive)
same,GI50,[27],10.8 µM (inactive)
same,GI50,[28],6.65 µM (inactive)
same,GI50,[29],27.3 µM (inactive)
same,GI50,[30],26.4 µM (inactive)
same,GI50,[31],21.5 µM (inactive)
same,GI50,[32],11.6 µM (inactive)
same,GI50,[33],20 µM (inactive)
same,GI50,[34],30.7 µM (inactive)
same,GI50,[35],12.2 µM (inactive)
same,GI50,[36],10.6 µM (inactive)
same,GI50,[37],20.9 µM (inactive)
same,GI50,[38],14.6 µM (inactive)
same,GI50,[39],15.3 µM (inactive)
same,GI50,[40],3.31 µM (inactive)
same,GI50,[41],29.9 µM (inactive)
same,GI50,[42],24.5 µM (inactive)
same,GI50,[43],28.4 µM (inactive)
same,GI50,[44],59 µM (inactive)
same,GI50,[45],58.1 µM (inactive)
same,GI50,[46],11.3 µM (inactive)
same,GI50,[47],6.24 µM (inactive)
same,GI50,[48],59.4 µM (inactive)
same,GI50,[49],39.2 µM (inactive)
same,GI50,[50],> 100 µM (inactive)
same,GI50,[51],20.7 µM (inactive)
same,GI50,[52],11.9 µM (inactive)
same,GI50,[53],26.1 µM (inactive)
same,GI50,[54],8.95 µM (inactive)
same,GI50,[55],13.2 µM (inactive)
same,GI50,[56],13.3 µM (inactive)
same,GI50,[57],22.5 µM (inactive)
same,GI50,[58],18.8 µM (inactive)
same,GI50,[59],13.7 µM (inactive)
